Source: patent publication US20230117034A1, “PYRAZOLOTRIAZINES” (Bayer Aktiengesellschaft, priority 2019, published 2023)

What was measured:
[1] = target: T1, CDK2/CycE (Homo sapiens, UniProt P24941); test: CDK2/CycE kinase assay (TR-FRET, 2 mM ATP); type: biochemical; details: 2 mM ATP (high ATP); median; read-out: CDK2/CyclinE, 2 mM ATP (high ATP), IC50 (median)
T1 construct: purchased ProQinase GmbH (Freiburg, Germany); host or cells: insect cells (Sf9)
Outline: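 Biotin-peptide phosphorylation (0.75 µM substrate, 2 mM ATP final, 25 min, 22 °C) by Sf9-expressed GST-CDK2/GST-CycE, after a 15-min compound pre-binding step. Inhibition scaled between enzyme-free (100%) and uninhibited (0%) wells.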

[2] = tested on: MDA-MB-231, human breast cancer cells; test: Proliferation assay MDA-MB-231 (crystal violet, 4 days); type: cell-based; details: Homo sapiens, MDA-MB-231, 96 h, MDA-MB-231 cells, median, read-out: Prolif-MDA MB-231, IC50-[mol/l] (median)
Outline: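 Crystal violet proliferation read-out after 4 days of compound exposure (0.01-10 µmol/L; solvent 0.1% DMSO). Extinction at 595 nm, set between zero-point (0%) and vehicle (100%), fitted with 4 parameters to give IC50.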

[3] = target: T2, CYCLIN K (nuclear staining in CAL-120 cells) (Homo sapiens, UniProt O75909); test: CYCLIN K nuclear protein level: immunofluorescence high content analysis (CAL-120); type: cell-based; details: 24 h, 50% reduction of nuclear CCNK staining intensity, median, read-out: CYCLIN K degradation IF, DC50-[mol/l] (median)
T2 construct: endogenous in cells; host or cells: CAL-120 human breast cancer cells (DSMZ ACC 459)
T2 sequence (O75909 whole entry): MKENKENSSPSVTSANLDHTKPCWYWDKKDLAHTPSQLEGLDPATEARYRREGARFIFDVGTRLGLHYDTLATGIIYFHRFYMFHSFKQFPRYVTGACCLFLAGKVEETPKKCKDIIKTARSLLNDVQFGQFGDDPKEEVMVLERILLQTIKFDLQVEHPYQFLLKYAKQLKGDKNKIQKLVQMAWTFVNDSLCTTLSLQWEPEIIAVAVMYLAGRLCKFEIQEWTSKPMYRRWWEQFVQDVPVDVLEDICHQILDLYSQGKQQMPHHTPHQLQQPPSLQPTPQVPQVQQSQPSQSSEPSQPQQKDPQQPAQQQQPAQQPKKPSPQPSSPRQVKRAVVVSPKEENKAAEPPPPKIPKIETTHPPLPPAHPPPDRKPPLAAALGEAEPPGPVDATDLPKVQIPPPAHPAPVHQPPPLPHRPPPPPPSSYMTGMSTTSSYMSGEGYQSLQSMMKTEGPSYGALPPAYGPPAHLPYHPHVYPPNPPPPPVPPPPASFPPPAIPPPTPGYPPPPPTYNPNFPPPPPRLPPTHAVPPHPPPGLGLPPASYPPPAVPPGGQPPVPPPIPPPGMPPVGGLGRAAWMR
T2 sequence (Q9NYV4 whole entry partner): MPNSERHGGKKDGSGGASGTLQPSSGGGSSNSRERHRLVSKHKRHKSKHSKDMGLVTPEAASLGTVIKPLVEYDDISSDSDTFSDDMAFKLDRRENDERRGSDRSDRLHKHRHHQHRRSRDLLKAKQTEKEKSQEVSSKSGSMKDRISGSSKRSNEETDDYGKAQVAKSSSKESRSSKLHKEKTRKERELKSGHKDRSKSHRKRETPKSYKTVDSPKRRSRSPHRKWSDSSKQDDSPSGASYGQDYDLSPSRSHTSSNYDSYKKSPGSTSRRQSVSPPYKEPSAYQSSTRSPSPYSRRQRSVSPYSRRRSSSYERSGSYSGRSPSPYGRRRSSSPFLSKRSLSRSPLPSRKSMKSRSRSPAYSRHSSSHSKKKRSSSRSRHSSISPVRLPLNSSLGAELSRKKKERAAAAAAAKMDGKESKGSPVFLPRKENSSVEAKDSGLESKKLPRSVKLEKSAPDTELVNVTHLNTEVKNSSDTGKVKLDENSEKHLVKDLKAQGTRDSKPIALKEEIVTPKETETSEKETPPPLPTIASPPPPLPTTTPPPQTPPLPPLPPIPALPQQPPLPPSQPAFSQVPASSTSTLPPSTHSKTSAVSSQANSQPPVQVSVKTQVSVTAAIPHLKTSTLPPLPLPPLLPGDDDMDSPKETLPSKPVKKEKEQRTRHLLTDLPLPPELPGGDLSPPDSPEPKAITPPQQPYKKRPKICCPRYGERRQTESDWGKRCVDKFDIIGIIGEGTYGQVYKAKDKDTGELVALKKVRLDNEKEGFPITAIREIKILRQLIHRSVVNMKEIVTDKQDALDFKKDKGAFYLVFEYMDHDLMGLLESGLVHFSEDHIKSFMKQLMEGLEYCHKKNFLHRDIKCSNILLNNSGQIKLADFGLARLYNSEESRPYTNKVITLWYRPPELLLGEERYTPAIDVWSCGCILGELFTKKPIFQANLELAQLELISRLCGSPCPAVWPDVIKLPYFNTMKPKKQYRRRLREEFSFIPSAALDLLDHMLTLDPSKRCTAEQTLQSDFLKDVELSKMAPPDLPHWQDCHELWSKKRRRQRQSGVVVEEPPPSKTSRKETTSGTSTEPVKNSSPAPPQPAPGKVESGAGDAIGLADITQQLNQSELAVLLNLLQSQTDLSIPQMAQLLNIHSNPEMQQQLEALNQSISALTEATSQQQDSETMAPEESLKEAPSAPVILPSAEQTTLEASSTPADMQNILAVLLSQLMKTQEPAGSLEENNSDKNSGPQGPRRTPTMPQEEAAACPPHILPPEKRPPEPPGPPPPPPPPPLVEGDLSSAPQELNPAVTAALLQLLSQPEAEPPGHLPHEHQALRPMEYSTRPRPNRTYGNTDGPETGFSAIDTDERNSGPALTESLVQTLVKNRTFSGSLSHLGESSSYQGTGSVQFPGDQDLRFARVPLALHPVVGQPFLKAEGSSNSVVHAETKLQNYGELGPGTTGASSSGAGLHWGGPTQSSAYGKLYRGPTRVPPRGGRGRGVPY
Outline: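 Readout is automated confocal image analysis of nuclear cyclin K immunofluorescence (Hoechst nuclei) after PFA fixation. Cells were CAL-120, exposed to compound dose-response 24 h at 37 °C; values are DC50 for halving nuclear CCNK signal relative to DMSO and control wells.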

SMILES | IC50 [1] [µM] | IC50 [2] [µM] | DC50 [3] [µM]
Fc1ccc2[nH]c(CNc3nc(N4C[C@H]5CC[C@@H](C4)N5)nc4c(C5CC5)cnn34)nc2c1F [Example 294, 8-cyclopropyl-2-[(1R,5S)-3,8-diazabicyclo[3.2.1]octan-3-yl]-N-[(4,5-difluoro-1H-benzimidazol-2-yl)methyl]pyrazolo[1,5-a][1,3,5]triazin-4-amine] | 17.2 | 0.00337 | 0.00056
CN(CC(C)(C)O)c1nc(NCc2nc3c(F)c(F)ccc3[nH]2)n2ncc(C3CC3)c2n1 [Example 292, 1-[(8-cyclopropyl-4-{[(4,5-difluoro-1H-benzimidazol-2-yl)methyl]amino}pyrazolo[1,5-a][1,3,5]triazin-2-yl)(methyl)amino]-2-methylpropan-2-ol] | > 5.19 | 0.00705 | 0.000643
N[C@H]1CCN(c2nc(NCc3nc4ccccc4[nH]3)n3ncc(Br)c3n2)C1 [Example 245, 2-[(3S)-3-aminopyrrolidin-1-yl]-N-[(1H-benzimidazol-2-yl)methyl]-8-bromopyrazolo[1,5-a][1,3,5]triazin-4-amine] | 5 | 0.0143 | 0.000627
CN1CCN(c2nc(NCc3nc4cc(F)c(F)cc4[nH]3)n3ncc(C4CC4)c3n2)CC1 [Example 311, 8-cyclopropyl-N-[(5,6-difluoro-1H-benzimidazol-2-yl)methyl]-2-(4-methylpiperazin-1-yl)pyrazolo[1,5-a][1,3,5]triazin-4-amine] | > 20 | 0.0167 | 0.000892
CN(CC(C)(C)O)c1nc(NCc2nc3cc(Cl)c(Cl)cc3[nH]2)n2ncc(C3CC3)c2n1 [Example 306, 1-[(8-cyclopropyl-4-{[(5,6-dichloro-1H-benzimidazol-2-yl)methyl]amino}pyrazolo[1,5-a][1,3,5]triazin-2-yl)(methyl)amino]-2-methylpropan-2-ol] | > 20 | 0.00783 | 0.000642
Brc1cnn2c(NCc3nc4ccccc4[nH]3)nc(N3C[C@H]4C[C@@H]3CN4)nc12 [Example 269, N-[(1H-benzimidazol-2-yl)methyl]-8-bromo-2-[(1R,4R)-2,5-diazabicyclo[2.2.1]heptan-2-yl]pyrazolo[1,5-a][1,3,5]triazin-4-amine] | 4.84 | 0.0293 | 0.000324
c1ccc2[nH]c(CNc3nc(N4CCOCC4)nc4c(C5CCCC5)cnn34)nc2c1 [Example 244, N-[(1H-benzimidazol-2-yl)methyl]-8-cyclopentyl-2-(morpholin-4-yl)pyrazolo[1,5-a][1,3,5]triazin-4-amine] | > 20 | 0.501 | 0.0156
Fc1ccc2[nH]c(CNc3nc(N4CCOCC4)nc4c(C5CCCC5)cnn34)nc2c1F [Example 262, 8-cyclopentyl-N-[(4,5-difluoro-1H-benzimidazol-2-yl)methyl]-2-(morpholin-4-yl)pyrazolo[1,5-a][1,3,5]triazin-4-amine] | > 20 | 0.101 | 0.00194
c1ccc2[nH]c(CNc3nc(N4C[C@@H]5C[C@H]4CO5)nc4c(C5CC5)cnn34)nc2c1 [Example 254, N-[(1H-benzimidazol-2-yl)methyl]-8-cyclopropyl-2-[(1S,4S)-2-oxa-5-azabicyclo[2.2.1]heptan-5-yl]pyrazolo[1,5-a][1,3,5]triazin-4-amine] | > 20 | 0.181 | 0.00417
COc1ccc2[nH]c(CNc3nc(N4CCOCC4)nc4c(C(F)(F)F)cnn34)nc2c1 [Example 257, N-[(5-methoxy-1H-benzimidazol-2-yl)methyl]-2-(morpholin-4-yl)-8-(trifluoromethyl)pyrazolo[1,5-a][1,3,5]triazin-4-amine] | 16.1 | 0.0107 | 0.000864
Cc1cc2nc(CNc3nc(N4CCN(C)CC4)nc4c(C5CC5)cnn34)[nH]c2cc1C [Example 312, 8-cyclopropyl-N-[(5,6-dimethyl-1H-benzimidazol-2-yl)methyl]-2-(4-methylpiperazin-1-yl)pyrazolo[1,5-a][1,3,5]triazin-4-amine] | > 12.5 | 0.00321 | 0.000518
Fc1ccc2[nH]c(CNc3nc(N4CCOCC4)nc4c(C5CC5(F)F)cnn34)nc2c1 (racemic) [Example 286, 8-[(1RS)-2,2-difluorocyclopropyl]-N-[(5-fluoro-1H-benzimidazol-2-yl)methyl]-2-(morpholin-4-yl)pyrazolo[1,5-a][1,3,5]triazin-4-amine] | > 20 | 0.02 | 0.00189
N[C@@H]1CN(c2nc(NCc3nc4ccccc4[nH]3)n3ncc(Br)c3n2)CC12CC2 [Example 251, 2-[(7S)-7-amino-5-azaspiro[2.4]heptan-5-yl]-N-[(1H-benzimidazol-2-yl)methyl]-8-bromopyrazolo[1,5-a][1,3,5]triazin-4-amine] | 2.58 | 0.00273 | 0.00011
CN1CCN(c2nc(NCc3nc4ccccc4[nH]3)n3ncc(C4CC4)c3n2)CC1 [Example 246, N-[(1H-benzimidazol-2-yl)methyl]-8-cyclopropyl-2-(4-methylpiperazin-1-yl)pyrazolo[1,5-a][1,3,5]triazin-4-amine] | > 20 | 0.121 | 0.00102
N[C@H]1[C@@H]2C[C@H]1CN(c1nc(NCc3nc4ccccc4[nH]3)n3ncc(Br)c3n1)C2 [Example 288, 2-[(1R,5S,6r)-6-amino-3-azabicyclo[3.1.1]heptan-3-yl]-N-[(1H-benzimidazol-2-yl)methyl]-8-bromopyrazolo[1,5-a][1,3,5]triazin-4-amine] | 2.64 | 0.00568 | 0.000418
Fc1ccc2[nH]c(CNc3nc(N4CCOCC4)nc4c(C5CCC5)cnn34)nc2c1F [Example 264, 8-cyclobutyl-N-[(4,5-difluoro-1H-benzimidazol-2-yl)methyl]-2-(morpholin-4-yl)pyrazolo[1,5-a][1,3,5]triazin-4-amine] | > 20 | 0.023 | 0.0018
CN[C@H]1CCN(c2nc(NCc3nc4ccccc4[nH]3)n3ncc(Br)c3n2)C1 [Example 252, N-[(1H-benzimidazol-2-yl)methyl]-8-bromo-2-[(3S)-3-(methylamino)pyrrolidin-1-yl]pyrazolo[1,5-a][1,3,5]triazin-4-amine] | 13.3 | 0.0306 | 0.00242
Fc1cc2nc(CNc3nc(N4CCOCC4)nc4c(C5CC5)cnn34)[nH]c2cc1Cl [Example 307, N-[(6-chloro-5-fluoro-1H-benzimidazol-2-yl)methyl]-8-cyclopropyl-2-(morpholin-4-yl)pyrazolo[1,5-a][1,3,5]triazin-4-amine] | > 20 | 0.00505 | 0.000863
C[C@@H]1CN(c2nc(NCc3nc4ccccc4[nH]3)n3ncc(C4CC4)c3n2)C[C@H](C)N1 [Example 248, N-[(1H-benzimidazol-2-yl)methyl]-8-cyclopropyl-2-[(3R,5S)-3,5-dimethylpiperazin-1-yl]pyrazolo[1,5-a][1,3,5]triazin-4-amine] | > 20 | 0.012 | 0.000648
CC(C)CNc1nc(NCc2nc3ccccc3[nH]2)n2ncc(Br)c2n1 [Example 285, N^4-[(1H-benzimidazol-2-yl)methyl]-8-bromo-N^2-(2-methylpropyl)pyrazolo[1,5-a][1,3,5]triazine-2,4-diamine] | 2.55 | 0.0906 | 0.00346
Fc1ccc2[nH]c(CNc3nc(N4CCOCC4)nc4c(C5CC5(F)F)cnn34)nc2c1F (stereo not drawn) [Example 278, N-[(4,5-difluoro-1H-benzimidazol-2-yl)methyl]-8-(2,2-difluorocyclopropyl)-2-(morpholin-4-yl)pyrazolo[1,5-a][1,3,5]triazin-4-amine] | > 20 | 0.0174 | 0.000728
CN[C@@H]1CCN(c2nc(NCc3nc4ccccc4[nH]3)n3ncc(Br)c3n2)C1 [Example 253, N-[(1H-benzimidazol-2-yl)methyl]-8-bromo-2-[(3R)-3-(methylamino)pyrrolidin-1-yl]pyrazolo[1,5-a][1,3,5]triazin-4-amine] | 12.2 | 0.0328 | 0.00182
Fc1cccc2[nH]c(CNc3nc(N4CCOCC4)nc4c(CC(F)(F)F)cnn34)nc12 [Example 303, N-[(4-fluoro-1H-benzimidazol-2-yl)methyl]-2-(morpholin-4-yl)-8-(2,2,2-trifluoroethyl)pyrazolo[1,5-a][1,3,5]triazin-4-amine] | > 20 | 0.0265 | 0.000546
Cc1ccnc2[nH]c(CNc3nc(N4CCOCC4)nc4c(Br)cnn34)nc12 [Example 20, 8-bromo-N-[(7-methyl-3H-imidazo[4,5-b]pyridin-2-yl)methyl]-2-(morpholin-4-yl)pyrazolo[1,5-a][1,3,5]triazin-4-amine] | 1.72 | 0.031 | 0.00135
CCNC1CCN(c2nc(NCc3nc4ccccc4[nH]3)n3ncc(Br)c3n2)CC1 [Example 300] | > 19.7 | 0.106 | 0.00103
